From patent US20230312685A1, “Bi-Peptide with Affinity to Extracellular Matrix Proteins or Cells and to Growth Factors for Tissue Healing and Regeneration” (Mayo Foundation for Medical Education and Research, priority 2019, published 2023)

Molecular target: T1, collagen type 1 of the scaffold (CMI) (Bos taurus, UniProt P02453+P02465)
T1 construct: the CMI is build out of collagen type 1 from bovine origin (FDA approved implant); from tissue; host or cells: bovine-derived collagen, in the form of the commercial collagen meniscal implant (CMI) scaffold
Assay: Immunofluorescence (IF) assay for PDGF-BB on the collagen meniscal implant (CMI)
Format: binding, bovine
Procedure: Pictures are merged z-stack files from confocal microscopy.
(1) Complete assay; (2) Blank assay; (3) Assay without peptide; (4) Assay without growth factor (PDGF); (5) Assay without primary antibody. Note: PDGF appears to bind well to collagen type 1 of the scaffold even without pre-incubation of the bi-peptide structure. Therefore the heparin-binding domain part of the peptide for PDGF can't be evaluated according to this assay.
FIG. 10 is an image of a Tile confocal scan of the CMI in the IF assay for PDGF-BB. The complete surface of the CMI was able to bind with recombinant PDGF.

T1 sequence (P02453 162-1217 limits assumed): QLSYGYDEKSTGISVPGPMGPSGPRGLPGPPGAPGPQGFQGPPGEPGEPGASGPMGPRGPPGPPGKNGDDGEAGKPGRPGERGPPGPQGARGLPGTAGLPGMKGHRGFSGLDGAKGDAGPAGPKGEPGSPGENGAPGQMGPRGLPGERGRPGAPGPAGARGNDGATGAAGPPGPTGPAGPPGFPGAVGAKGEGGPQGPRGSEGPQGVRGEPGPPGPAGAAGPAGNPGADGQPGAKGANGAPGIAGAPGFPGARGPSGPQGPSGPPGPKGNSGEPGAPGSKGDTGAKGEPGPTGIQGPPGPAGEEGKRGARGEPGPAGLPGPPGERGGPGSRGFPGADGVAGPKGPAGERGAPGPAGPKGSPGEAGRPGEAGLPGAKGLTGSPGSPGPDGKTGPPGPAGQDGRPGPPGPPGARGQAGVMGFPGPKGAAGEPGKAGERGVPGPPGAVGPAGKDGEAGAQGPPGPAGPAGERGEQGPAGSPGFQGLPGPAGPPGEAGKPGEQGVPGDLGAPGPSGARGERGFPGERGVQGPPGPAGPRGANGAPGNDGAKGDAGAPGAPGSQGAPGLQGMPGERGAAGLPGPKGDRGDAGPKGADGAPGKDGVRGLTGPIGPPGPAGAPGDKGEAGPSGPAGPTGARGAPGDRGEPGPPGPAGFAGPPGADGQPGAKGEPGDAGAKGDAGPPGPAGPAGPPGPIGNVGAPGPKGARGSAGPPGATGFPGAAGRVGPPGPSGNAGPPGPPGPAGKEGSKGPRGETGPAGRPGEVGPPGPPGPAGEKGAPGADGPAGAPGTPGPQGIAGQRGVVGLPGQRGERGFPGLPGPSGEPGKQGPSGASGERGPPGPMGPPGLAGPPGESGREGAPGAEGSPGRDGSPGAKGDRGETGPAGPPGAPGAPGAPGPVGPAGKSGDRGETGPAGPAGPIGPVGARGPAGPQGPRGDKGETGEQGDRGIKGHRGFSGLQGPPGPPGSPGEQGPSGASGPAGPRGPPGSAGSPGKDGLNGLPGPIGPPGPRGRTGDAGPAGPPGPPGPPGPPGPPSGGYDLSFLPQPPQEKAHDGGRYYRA
T1 sequence (P02465 80-1117 limits assumed): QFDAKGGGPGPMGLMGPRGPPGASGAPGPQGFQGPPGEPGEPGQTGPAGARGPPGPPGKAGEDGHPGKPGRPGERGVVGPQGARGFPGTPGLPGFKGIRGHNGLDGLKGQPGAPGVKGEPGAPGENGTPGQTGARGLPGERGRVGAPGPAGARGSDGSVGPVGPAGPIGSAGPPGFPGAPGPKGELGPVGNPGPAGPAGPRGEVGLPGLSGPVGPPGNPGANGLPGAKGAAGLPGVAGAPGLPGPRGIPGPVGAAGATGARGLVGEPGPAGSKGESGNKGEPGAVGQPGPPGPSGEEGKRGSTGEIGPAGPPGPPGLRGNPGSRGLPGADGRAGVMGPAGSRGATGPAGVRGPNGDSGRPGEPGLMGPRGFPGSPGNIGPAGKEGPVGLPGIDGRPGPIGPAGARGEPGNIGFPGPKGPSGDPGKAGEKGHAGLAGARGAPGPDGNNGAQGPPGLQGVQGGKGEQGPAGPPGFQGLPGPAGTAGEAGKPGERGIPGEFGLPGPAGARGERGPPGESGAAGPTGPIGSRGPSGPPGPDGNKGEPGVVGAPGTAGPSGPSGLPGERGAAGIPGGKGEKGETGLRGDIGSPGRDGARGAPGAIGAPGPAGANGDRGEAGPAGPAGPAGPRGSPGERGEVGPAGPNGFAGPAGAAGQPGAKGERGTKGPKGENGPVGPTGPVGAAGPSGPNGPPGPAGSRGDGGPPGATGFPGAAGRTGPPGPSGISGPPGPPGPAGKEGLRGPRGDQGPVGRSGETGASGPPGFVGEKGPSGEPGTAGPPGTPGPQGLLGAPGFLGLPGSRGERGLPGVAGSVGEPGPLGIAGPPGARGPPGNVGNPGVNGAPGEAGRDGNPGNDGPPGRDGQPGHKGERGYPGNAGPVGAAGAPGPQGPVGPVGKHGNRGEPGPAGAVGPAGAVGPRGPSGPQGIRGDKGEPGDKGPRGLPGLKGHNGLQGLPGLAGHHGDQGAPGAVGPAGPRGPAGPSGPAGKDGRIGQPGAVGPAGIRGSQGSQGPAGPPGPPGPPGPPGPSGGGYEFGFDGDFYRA

binding of PDGF to collagen type 1 of the scaffold (IF assay on CMI, without pre-incubation of the bi-peptide structure): bind well
binding of recombinant PDGF to the CMI surface (tile confocal scan of the CMI, complete surface): able to bind
Substance: PDGF
